Where a name gives a salt, the structure may show the parent alone.
Experiments:
Human PKMYT1 = target: T1, Human PKMYT1 (Homo sapiens, UniProt Q99640); assay: PKMYT1 biochemical ADP-Glo enzymatic assay; conditions: ADP-Glo
T1 construct: Human PKMYT1 75-362 was cloned as a TEV cleavable 6xHis fusion; 6xHis (TEV cleavable) (cleaved yes); made in house; host or cells: bacterial cells
T1 sequence (Q99640 75-362): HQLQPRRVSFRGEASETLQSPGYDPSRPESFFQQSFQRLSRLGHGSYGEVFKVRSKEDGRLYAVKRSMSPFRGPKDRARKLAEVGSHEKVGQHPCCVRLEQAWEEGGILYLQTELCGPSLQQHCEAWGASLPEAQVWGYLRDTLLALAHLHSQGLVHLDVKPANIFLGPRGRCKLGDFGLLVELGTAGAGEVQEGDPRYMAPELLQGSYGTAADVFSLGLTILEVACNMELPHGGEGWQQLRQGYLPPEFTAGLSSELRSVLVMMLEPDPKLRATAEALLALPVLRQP
Summary of the method: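 Intrinsic ATPase activity of E. coli-expressed, tag-cleaved human PKMYT1 kinase domain (75-362), 15 nM, with 500 µM ATP in HEPES pH 7.5/MgCl2/EGTA/Brij-35, 1% DMSO, 60 min at 26 °C. ADP formed was read by ADP-Glo Max luminescence; IC50 from 10-point, 3-fold dilution curves.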

WEE1 = target: T2, WEE1 (Homo sapiens, UniProt P30291); assay: Selectivity versus WEE1 assay (ADP-Glo enzymatic assay); format: biochemical; conditions: for IC50: ADP-Glo; for PKMYT1 vs. WEE1 selectivity: fold difference in selectivity for PKMYT1 over WEE1
T2 construct: purchased Thermo Fisher PR7373A
T2 sequence (P30291 whole entry): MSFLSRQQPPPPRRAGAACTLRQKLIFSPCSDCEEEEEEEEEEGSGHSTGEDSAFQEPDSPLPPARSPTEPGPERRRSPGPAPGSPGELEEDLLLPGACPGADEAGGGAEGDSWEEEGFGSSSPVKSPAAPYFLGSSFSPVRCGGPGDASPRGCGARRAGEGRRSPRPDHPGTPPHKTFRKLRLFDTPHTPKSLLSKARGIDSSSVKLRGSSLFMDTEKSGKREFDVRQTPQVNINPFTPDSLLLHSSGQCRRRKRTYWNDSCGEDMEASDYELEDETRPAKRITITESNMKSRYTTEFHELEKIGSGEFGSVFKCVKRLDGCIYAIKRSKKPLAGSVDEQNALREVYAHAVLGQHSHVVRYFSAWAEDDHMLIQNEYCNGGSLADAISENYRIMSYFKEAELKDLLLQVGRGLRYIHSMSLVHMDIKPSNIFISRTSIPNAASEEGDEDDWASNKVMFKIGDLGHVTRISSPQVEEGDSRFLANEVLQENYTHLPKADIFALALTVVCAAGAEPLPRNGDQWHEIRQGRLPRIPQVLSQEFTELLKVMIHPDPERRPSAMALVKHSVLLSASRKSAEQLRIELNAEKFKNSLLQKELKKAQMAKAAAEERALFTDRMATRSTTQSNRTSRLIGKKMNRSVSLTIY
Summary of the method: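 Kinase at 15 nM final in 50 mM HEPES pH 7.5, 10 mM MgCl2, 1 mM EGTA, 0.01% Brij-35, 1% DMSO was started with 30 µM ATP and run 60 min at 26° C. ADP formed was read by ADP-Glo luminescence; IC50 came from dose-response curves.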

[1] = PKMYT1 kinase domain 15 nM, banded values
[2] = 15 nM PKMYT1 kinase domain, 500 µM ATP, 60 minutes at 26° C., banded
[3] = 15 nM WEE1, 60 minutes at 26° C., banded
[4] = banded, ">N" = at least in this band but could be higher

Row | IC50 (Human PKMYT1; [1]) | IC50 (WEE1; WEE1 15 nM, banded values) | PKMYT1 vs. WEE1 selectivity (WEE1; banded) | IC50 (Human PKMYT1; [2]) | IC50 (WEE1; [3]) | PKMYT1 vs. WEE1 selectivity (WEE1; [4]) | Compound
1 | 50 to 1000 nM | 1000 to 11000 nM | X (100-<1000 fold) | – | – | – | Cc1ccc(O)c(C)c1NC(=O)c1cnc(Nc2cnn(C)c2)s1 [BAA-536, N-(3-hydroxy-2,6-dimethylphenyl)-2-((1-methyl-1H-pyrazol-4-yl)amino)thiazole-5-carboxamide hydrochloride]
2 | – | – | – | 1000 to 11000 nM | > 11000 nM | W (10-<100 fold) | Cc1ccc(O)c(C)c1NC(=O)c1cnc(Nc2ccc(C#N)c(F)c2)s1 [BAA-283, 2-((4-cyano-3-fluorophenyl)amino)-N-(3-hydroxy-2,6-dimethylphenyl)thiazole-5-carboxamide]
3 | 50 to 1000 nM | 1000 to 11000 nM | W (10-<100 fold) | – | – | – | Cc1ccc(O)c(C)c1NC(=O)c1cnc(Nc2cc(C(=O)N3CCOCC3)n(C)n2)s1 [BAA-537, N-(3-hydroxy-2,6-dimethylphenyl)-2-((1-methyl-5-(morpholine-4-carbonyl)-1H-pyrazol-3-yl)amino)thiazole-5-carboxamide]
4 | 50 to 1000 nM | > 11000 nM | X (100-<1000 fold) | – | – | – | Cc1ccc(O)c(C)c1NC(=O)c1cnc(Nc2nccc3ncccc23)s1 [BAA-603, 2-((1,6-naphthyridin-5-yl)amino)-N-(3-hydroxy-2,6-dimethylphenyl)thiazole-5-carboxamide]
5 | – | – | – | < 50 nM | 1000 to 11000 nM | X (100-<1000 fold) | Cc1ccc(O)c(C)c1NC(=O)c1cnc(Nc2cccc(C(=O)N3CC4CCC3C4)c2)s1 (stereo not drawn) [BAA-289, 2-((3-(2-azabicyclo[2.2.1]heptane-2-carbonyl)phenyl)amino)-N-(3-hydroxy-2,6-dimethylphenyl)thiazole-5-carboxamide]
6 | – | – | – | 50 to 1000 nM | > 11000 nM | X (100-<1000 fold) | Cc1ccc(O)c(C)c1NC(=O)c1cnc(Nc2nc(C)c(C)s2)s1 [BAA-266, 2-((4,5-dimethylthiazol-2-yl)amino)-N-(3-hydroxy-2,6-dimethylphenyl)thiazole-5-carboxamide]

Second part, the compound before the results:

Row | Compound | IC50 (Human PKMYT1; [1]) | IC50 (WEE1; WEE1 15 nM, banded values) | PKMYT1 vs. WEE1 selectivity (WEE1; banded) | IC50 (Human PKMYT1; [2]) | IC50 (WEE1; [3]) | PKMYT1 vs. WEE1 selectivity (WEE1; [4])
7 | Cc1ccc(O)c(C)c1NC(=O)c1cnc(Nc2ccn(C3CCCC3)n2)s1 [BAA-014, 2-[(1-cyclopentylpyrazol-3-yl)amino]-N-(3-hydroxy-2,6-dimethyl-phenyl)thiazole-5-carboxamide] | – | – | – | < 50 nM | 1000 to 11000 nM | W (10-<100 fold)
8 | CCNC(=O)Cn1ccc(Nc2ncc(C(=O)Nc3c(C)ccc(O)c3C)s2)n1 [BAA-188] | – | – | – | < 50 nM | > 11000 nM | Y (1000-5000 fold)
9 | Cc1ccc(O)c(C)c1NC(=O)c1sc(Nc2ccn(C)n2)nc1N [BAA-219, 4-Amino-N-(3-hydroxy-2,6-dimethyl-phenyl)-2-[(1-methylpyrazol-3-yl)amino]thiazole-5-carboxamide] | – | – | – | 1000 to 11000 nM | 1000 to 11000 nM | V (3-<10 fold)
10 | Cc1ccc(O)c(C)c1NC(=O)c1cnc(Nc2ccn(CCCO)n2)s1 [BAA-002, N-(3-Hydroxy-2,6-dimethyl-phenyl)-2-[[1-(3-hydroxypropyl)pyrazol-3-yl]amino]thiazole-5-carboxamide] | – | – | – | < 50 nM | 1000 to 11000 nM | W (10-<100 fold)
11 | CCCCCCCNC(=O)Cn1ccc(Nc2ncc(C(=O)Nc3c(C)ccc(O)c3C)s2)n1 [BAA-135] | – | – | – | < 50 nM | 1000 to 11000 nM | X (100-<1000 fold)
12 | Cc1ccc(O)c(C)c1NC(=O)c1cnc(Nc2cc(C(=O)N(C)C)n(C)n2)s1 [BAA-120, 2-[[5-(dimethylcarbamoyl)-1-methyl-pyrazol-3-yl]amino]-N-(3-hydroxy-2,6-dimethyl-phenyl)thiazole-5-carboxamide] | – | – | – | 50 to 1000 nM | 1000 to 11000 nM | X (100-<1000 fold)
13 | Cc1ccc(O)c(C)c1NC(=O)c1cnc(Nc2ccn(C3CCN(C(=O)OC(C)(C)C)CC3)n2)s1 [BAA-031] | – | – | – | 50 to 1000 nM | > 11000 nM | >X (100-<1000 fold)
